Assay results taken from the NIST ThermoML archive (doi:10.1016/j.fluid.2014.01.038).

Experiment: mn = molality of the nth substance listed, in mol/kg
Conditions: 288.15 K, 101 kPa, Liquid, Pycnometric method

CC(C)C[C@H](NC(=O)CN)C(=O)O [glycyl-L-leucine] + O
Conditions	mass density [kg/m3]
m1 = 0.03301	1000.8
m1 = 0.04936	1001.65
m1 = 0.05894	1002.14
m1 = 0.06889	1002.67
m1 = 0.07838	1003.17
m1 = 0.08821	1003.69
m1 = 0.09745	1004.12

CC(C)[C@H](NC(=O)CN)C(=O)O [glycyl-L-valine] + O
Conditions	mass density [kg/m3]
m1 = 0.04051	1001.29
m1 = 0.08097	1003.45
m1 = 0.1203	1005.55
m1 = 0.1403	1006.63
m1 = 0.1594	1007.68
m1 = 0.1799	1008.79
m1 = 0.1995	1009.84

NCC(=O)NCC(=O)O [glycylglycine] + O
Conditions	mass density [kg/m3]
m1 = 0.06148	1002.65
m1 = 0.09135	1004.36
m1 = 0.1538	1007.96
m1 = 0.1823	1009.6
m1 = 0.2128	1011.36
m1 = 0.2534	1013.73
m1 = 0.3028	1016.61
